# Data published in ChEMBL document CHEMBL1201861, “Genomics of Drug Sensitity in Cancer screening data, Wellcome Trust Sanger Institute”.
# What was measured:
# Assay in all cases: cells
# RXF 393 = type: functional, cell-based; conditions: Homo sapiens;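 also: growth inhibition of human RXF 393 cells, read out with a cell viability assay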
# Description: SANGER: Inhibition of human RXF393 cell growth in a cell viability assay.
# NCI-H1155 = type: functional, cell-based; conditions: Homo sapiens;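 also: cell growth inhibition measured by a viability assay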
# Description: SANGER: Inhibition of human NCI-H1155 cell growth in a cell viability assay.
# HD-MY-Z = type: functional, cell-based, Homo sapiens; conditions: Homo sapiens, HD-MY-Z;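 also: growth inhibition of HD-MY-Z cells, read out with a cell viability assay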
# Description: SANGER: Inhibition of human HD-MY-Z cell growth in a cell viability assay.
# ML-2 = type: functional, cell-based; conditions: Homo sapiens;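 also: growth inhibition of ML-2 cells, measured with a cell viability readout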
# Description: SANGER: Inhibition of human ML-2 cell growth in a cell viability assay.
# Becker = type: functional, cell-based, Homo sapiens; conditions: Homo sapiens, Becker;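 also: growth inhibition of Becker cells, read out with a cell viability assay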
# Description: SANGER: Inhibition of human Becker cell growth in a cell viability assay.
# PC-14 = type: functional, cell-based, Homo sapiens; conditions: Homo sapiens, PC-14;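 also: cell viability assay measuring inhibition of PC-14 cell growth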
# Description: SANGER: Inhibition of human PC-14 cell growth in a cell viability assay.
# MMAC-SF = type: functional, cell-based, Homo sapiens; conditions: Homo sapiens, MMAC-SF;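 also: growth inhibition of human MMAC-SF cells, read out with a cell viability assay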
# Description: SANGER: Inhibition of human MMAC-SF cell growth in a cell viability assay.
# A4-Fuk = type: functional, cell-based; conditions: Homo sapiens;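 also: growth inhibition of A4-Fuk cells, read out by a cell viability assay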
# Description: SANGER: Inhibition of human A4-Fuk cell growth in a cell viability assay.
# PC-3 = type: functional, cell-based, Homo sapiens; conditions: Homo sapiens, PC-3;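 also: cell viability assay measuring growth inhibition of PC-3 cells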
# Description: SANGER: Inhibition of human PC-3 cell growth in a cell viability assay.
# UACC-62 = type: functional, cell-based, Homo sapiens; conditions: Homo sapiens, UACC-62;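 also: growth inhibition of human UACC-62 cells, read out by a cell viability assay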
# Description: SANGER: Inhibition of human UACC-62 cell growth in a cell viability assay.
# OE19 = type: functional, cell-based, Homo sapiens; conditions: Homo sapiens, OE19;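 also: growth inhibition of OE19 cells, measured through a cell viability read-out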
# Description: SANGER: Inhibition of human OE19 cell growth in a cell viability assay.
# TE-1 = type: functional, cell-based, Homo sapiens; conditions: Homo sapiens, TE-1;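 also: growth inhibition of the human TE-1 cell line, read out with a cell viability assay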
# Description: SANGER: Inhibition of human TE-1 cell growth in a cell viability assay.
# OCUB-M = type: functional, cell-based, Homo sapiens; conditions: Homo sapiens, OCUB-M;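 also: growth inhibition of the cancer cell line, read out through a cell viability assay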
# Description: SANGER: Inhibition of human OCUB-M cell growth in a cell viability assay.
# ES6 = type: functional, cell-based, Homo sapiens; conditions: Homo sapiens, ES6;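 also: growth inhibition of human ES6 cells, read out with a cell viability assay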
# Description: SANGER: Inhibition of human ES6 cell growth in a cell viability assay.
# RD = type: functional, cell-based, Homo sapiens; conditions: Homo sapiens, RD
# Description: SANGER: Inhibition of human RD cell growth in a cell viability assay.
# KARPAS-299 = type: functional, cell-based; conditions: Homo sapiens
# Description: SANGER: Inhibition of human KARPAS-299 cell growth in a cell viability assay.
# Hs-578T = type: functional, cell-based, Homo sapiens; conditions: Homo sapiens, Hs-578T
# Description: SANGER: Inhibition of human Hs-578-T cell growth in a cell viability assay.
# BHY = type: functional, cell-based, Homo sapiens; conditions: Homo sapiens, BHY;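 also: cell growth inhibition read out by a viability assay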
# Description: SANGER: Inhibition of human BHY cell growth in a cell viability assay.
# LU-99A = type: functional, cell-based, Homo sapiens; conditions: Homo sapiens, LU-99A;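 also: growth inhibition of LU-99A cells, read out with a cell viability assay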
# Description: SANGER: Inhibition of human LU-99A cell growth in a cell viability assay.
# SNU-C2B = type: functional, cell-based, Homo sapiens; conditions: Homo sapiens, SNU-C2B;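 also: cell viability readout used to measure compound-driven suppression of SNU-C2B cell proliferation, IC50 marking half-maximal growth inhibition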
# Description: SANGER: Inhibition of human SNU-C2B cell growth in a cell viability assay.
# SCC-9 = type: functional, cell-based, Homo sapiens; conditions: Homo sapiens, SCC-9;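 also: Read-out is a cell viability assay, with values giving inhibition of cell growth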
# Description: SANGER: Inhibition of human SCC-9 cell growth in a cell viability assay.
# OVCAR-5 = type: functional, cell-based, Homo sapiens; conditions: Homo sapiens, OVCAR-5;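 also: growth inhibition of human OVCAR-5 cells, read out with a cell viability assay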
# Description: SANGER: Inhibition of human OVCAR-5 cell growth in a cell viability assay.
# HuO-3N1 = type: functional, cell-based, Homo sapiens; conditions: Homo sapiens, HuO-3N1;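 also: cell viability readout used to measure how strongly compounds suppress proliferation of human HuO-3N1 cells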
# Description: SANGER: Inhibition of human HuO-3N1 cell growth in a cell viability assay.
# HCC1937 = type: functional, cell-based, Homo sapiens; conditions: Homo sapiens, HCC1937;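 also: growth inhibition measured with a cell viability read-out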
# Description: SANGER: Inhibition of human HCC1937 cell growth in a cell viability assay.
# LXF-289 cell line = type: functional, cell-based, Homo sapiens; conditions: Homo sapiens, LXF-289
# Description: SANGER: Inhibition of human LXF-289 cell growth in a cell viability assay.
# MCF7 = type: functional, cell-based, Homo sapiens; conditions: Homo sapiens, MCF7;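 also: growth inhibition of human MCF7 cells, read out with a cell viability assay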
# Description: SANGER: Inhibition of human MCF7 cell growth in a cell viability assay.
# DMS-79 = type: functional, cell-based; conditions: Homo sapiens;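 also: growth inhibition measured with a cell viability assay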
# Description: SANGER: Inhibition of human DMS-79 cell growth in a cell viability assay.
# COLO-678 = type: functional, cell-based, Homo sapiens; conditions: Homo sapiens, COLO-678
# Description: SANGER: Inhibition of human COLO-678 cell growth in a cell viability assay.
# KP-N-YS = type: functional, cell-based; conditions: Homo sapiens;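 also: cell viability assay measuring inhibition of cell line growth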
# Description: SANGER: Inhibition of human KP-N-YS cell growth in a cell viability assay.
# SW780 = type: functional, cell-based, Homo sapiens; conditions: Homo sapiens, SW780;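 also: growth inhibition of the cells, read out with a cell viability assay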
# Description: SANGER: Inhibition of human SW780 cell growth in a cell viability assay.
# DEL = type: functional, cell-based; conditions: Homo sapiens;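 also: growth inhibition of the human DEL cell line, read out with a cell viability assay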
# Description: SANGER: Inhibition of human DEL cell growth in a cell viability assay.
# EW-11 = type: functional, cell-based, Homo sapiens; conditions: Homo sapiens, EW-11;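 also: growth inhibition of human EW-11 cells, measured with a cell viability assay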
# Description: SANGER: Inhibition of human EW-11 cell growth in a cell viability assay.
# MG-63 = type: functional, cell-based, Homo sapiens; conditions: Homo sapiens, MG-63;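 also: growth inhibition of human MG-63 cells, read out with a cell viability assay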
# Description: SANGER: Inhibition of human MG-63 cell growth in a cell viability assay.
# LB2241-RCC = type: functional, cell-based, Homo sapiens; conditions: Homo sapiens, LB2241-RCC;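 also: cell viability assay measuring how strongly the cultured human renal carcinoma line is prevented from growing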
# Description: SANGER: Inhibition of human LB2241-RCC cell growth in a cell viability assay.
# HMV-2 cell line = type: functional, cell-based, Homo sapiens; conditions: Homo sapiens, HMV-2;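 also: growth inhibition of HMV-II cells, read out with a cell viability assay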
# Description: SANGER: Inhibition of human HMV-II cell growth in a cell viability assay.
# COR-L23 = type: functional, cell-based, Homo sapiens; conditions: Homo sapiens, COR-L23;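 also: cell viability assay measuring how strongly compounds suppress growth of COR-L23 cells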
# Description: SANGER: Inhibition of human COR-L23 cell growth in a cell viability assay.
# COLO-792 = type: functional, cell-based, Homo sapiens; conditions: Homo sapiens, COLO-792
# Description: SANGER: Inhibition of human COLO-792 cell growth in a cell viability assay.
# 697 = type: functional, cell-based; conditions: Homo sapiens
# Description: SANGER: Inhibition of human 697 cell growth in a cell viability assay.
# NCI-H28 = type: functional, cell-based, Homo sapiens; conditions: Homo sapiens, NCI-H28;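 also: growth inhibition of human NCI-H28 cells, read out as cell viability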
# Description: SANGER: Inhibition of human NCI-H28 cell growth in a cell viability assay.
# LOX IMVI = type: functional, cell-based; conditions: Homo sapiens
# Description: SANGER: Inhibition of human LOXIMVI cell growth in a cell viability assay.
# A2058 = type: functional, cell-based; conditions: Homo sapiens;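 also: reduction of A2058 cell growth, read out with a viability assay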
# Description: SANGER: Inhibition of human A2058 cell growth in a cell viability assay.
# HEL = type: functional, cell-based, Homo sapiens; conditions: Homo sapiens, HEL;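 also: growth inhibition of HEL cells, read out with a cell viability assay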
# Description: SANGER: Inhibition of human HEL cell growth in a cell viability assay.
# SW48 = type: functional, cell-based, Homo sapiens; conditions: Homo sapiens, SW48;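 also: growth inhibition of SW48 cells, read out with a cell viability assay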
# Description: SANGER: Inhibition of human SW48 cell growth in a cell viability assay.
# 647-V = type: functional, cell-based, Homo sapiens; conditions: Homo sapiens, 647-V;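 also: growth inhibition of 647-V cells, read out with a cell viability assay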
# Description: SANGER: Inhibition of human 647-V cell growth in a cell viability assay.
# NCI-H1650 = type: functional, cell-based, Homo sapiens; conditions: Homo sapiens, NCI-H1650;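 also: growth inhibition of human NCI-H1650 cells measured by a cell viability assay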
# Description: SANGER: Inhibition of human NCI-H1650 cell growth in a cell viability assay.
# K562 = type: functional, cell-based; conditions: Homo sapiens
# Description: SANGER: Inhibition of human K-562 cell growth in a cell viability assay.
# Calu-6 = type: functional, cell-based, Homo sapiens; conditions: Homo sapiens, Calu-6;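 also: growth of human Calu-6 cells, read out by a cell viability assay, IC50 marking inhibition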
# Description: SANGER: Inhibition of human Calu-6 cell growth in a cell viability assay.
# COLO-668 = type: functional, cell-based, Homo sapiens; conditions: Homo sapiens, COLO-668
# Description: SANGER: Inhibition of human COLO-668 cell growth in a cell viability assay.
# SW1463 = type: functional, cell-based, Homo sapiens; conditions: Homo sapiens, SW1463;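 also: growth inhibition of SW1463 cells, determined with a cell viability assay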
# Description: SANGER: Inhibition of human SW1463 cell growth in a cell viability assay.
# S-117 = type: functional, cell-based, Homo sapiens; conditions: Homo sapiens, S-117
# Description: SANGER: Inhibition of human S-117 cell growth in a cell viability assay.
# CAL-27 = type: functional, cell-based, Homo sapiens; conditions: Homo sapiens, CAL-27;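 also: Viability-based readout, IC50 reflecting inhibition of CAL-27 cell growth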
# Description: SANGER: Inhibition of human CAL-27 cell growth in a cell viability assay.
# NCI-H1355 = type: functional, cell-based, Homo sapiens; conditions: Homo sapiens, NCI-H1355;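 also: growth inhibition of human NCI-H1355 cells, read out by a cell viability assay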
# Description: SANGER: Inhibition of human NCI-H1355 cell growth in a cell viability assay.
smiles,measurement,setting,value
CCC1=C[C@@H]2CN(C1)Cc1c([nH]c3ccccc13)[C@@](C(=O)OC)(c1cc3c(cc1OC)N(C)[C@H]1[C@@](O)(C(=O)OC)[C@H](OC(C)=O)[C@]4(CC)C=CCN5CC[C@]31[C@@H]54)C2 [VINORELBINE],IC50,RXF 393,5.06 nM
same,IC50,NCI-H1155,> 64 nM
same,IC50,HD-MY-Z,29.2 nM
same,IC50,ML-2,4.32 nM
same,IC50,Becker,5.39 nM
same,IC50,PC-14,3.26 nM
same,IC50,MMAC-SF,20.5 nM
same,IC50,A4-Fuk,4.04 nM
same,IC50,PC-3,> 64 nM
same,IC50,UACC-62,33.4 nM
same,IC50,OE19,13.2 nM
same,IC50,TE-1,13.1 nM
same,IC50,OCUB-M,4.43 nM
same,IC50,ES6,42.4 nM
same,IC50,RD,5.42 nM
same,IC50,KARPAS-299,> 64 nM
same,IC50,Hs-578T,> 64 nM
same,IC50,BHY,9.95 nM
same,IC50,LU-99A,6.24 nM
same,IC50,SNU-C2B,7.75 nM
same,IC50,SCC-9,2.05 nM
same,IC50,OVCAR-5,> 64 nM
same,IC50,HuO-3N1,13 nM
same,IC50,HCC1937,> 64 nM
same,IC50,LXF-289 cell line,4.68 nM
same,IC50,MCF7,5.01 nM
same,IC50,DMS-79,> 64 nM
same,IC50,COLO-678,> 64 nM
same,IC50,KP-N-YS,21.8 nM
same,IC50,SW780,14.9 nM
same,IC50,DEL,3.63 nM
same,IC50,EW-11,42.7 nM
same,IC50,MG-63,2.94 nM
same,IC50,LB2241-RCC,> 64 nM
same,IC50,HMV-2 cell line,4.77 nM
same,IC50,COR-L23,9.89 nM
same,IC50,COLO-792,> 64 nM
same,IC50,697,4.23 nM
same,IC50,NCI-H28,> 64 nM
same,IC50,LOX IMVI,> 64 nM
same,IC50,A2058,3.5 nM
same,IC50,HEL,38.3 nM
same,IC50,SW48,5.8 nM
same,IC50,647-V,20.9 nM
same,IC50,NCI-H1650,40.7 nM
same,IC50,K562,> 64 nM
same,IC50,Calu-6,5.7 nM
same,IC50,COLO-668,28.5 nM
same,IC50,SW1463,> 64 nM
same,IC50,S-117,> 64 nM
same,IC50,CAL-27,32 nM
same,IC50,NCI-H1355,2.9 nM
COc1cc([C@@H]2c3cc4c(cc3[C@@H](O[C@@H]3O[C@@H]5CO[C@@H](C)O[C@H]5[C@H](O)[C@H]3O)[C@H]3COC(=O)[C@H]23)OCO4)cc(OC)c1O [ETOPOSIDE],IC50,RXF 393,> 16000 nM
same,IC50,NCI-H1155,11000 nM
same,IC50,HD-MY-Z,8540 nM
same,IC50,ML-2,178 nM
same,IC50,Becker,11800 nM
same,IC50,PC-14,9720 nM
same,IC50,MMAC-SF,6880 nM
same,IC50,A4-Fuk,841 nM
same,IC50,PC-3,> 16000 nM
same,IC50,UACC-62,2920 nM
same,IC50,OE19,> 16000 nM
same,IC50,TE-1,> 16000 nM
same,IC50,OCUB-M,44.6 nM
same,IC50,ES6,> 16000 nM
same,IC50,RD,4800 nM
same,IC50,KARPAS-299,> 16000 nM
same,IC50,Hs-578T,> 16000 nM
same,IC50,BHY,1530 nM
same,IC50,LU-99A,2430 nM
same,IC50,SNU-C2B,> 16000 nM
same,IC50,SCC-9,850 nM
same,IC50,OVCAR-5,1540 nM
same,IC50,HuO-3N1,7710 nM
same,IC50,HCC1937,15800 nM
same,IC50,LXF-289 cell line,2080 nM
same,IC50,MCF7,831 nM
same,IC50,DMS-79,> 16000 nM
same,IC50,COLO-678,> 16000 nM
same,IC50,KP-N-YS,4240 nM
same,IC50,SW780,> 16000 nM
same,IC50,DEL,311 nM
same,IC50,EW-11,4770 nM
same,IC50,MG-63,1180 nM
same,IC50,LB2241-RCC,> 16000 nM
same,IC50,HMV-2 cell line,569 nM
same,IC50,COR-L23,6180 nM
same,IC50,COLO-792,> 16000 nM
same,IC50,697,243 nM
same,IC50,NCI-H28,> 16000 nM
same,IC50,LOX IMVI,> 16000 nM
same,IC50,A2058,425 nM
same,IC50,HEL,3900 nM
same,IC50,SW48,869 nM
same,IC50,647-V,487 nM
same,IC50,NCI-H1650,1740 nM
same,IC50,K562,> 16000 nM
same,IC50,Calu-6,4060 nM
same,IC50,COLO-668,1660 nM
same,IC50,SW1463,> 16000 nM
same,IC50,S-117,> 16000 nM
same,IC50,CAL-27,10400 nM
same,IC50,NCI-H1355,390 nM
